# Assay results reported in ChEMBL document CHEMBL4020772, “Alkaloids from aerial parts of Houttuynia cordata and their anti-inflammatory activity” (Bioorg Med Chem Lett, 2017).
# Tested on: RAW264.7
# Assay: Antiinflammatory activity in mouse RAW264.7 cells assessed as reduction in LPS-induced NO production pretreated for 30 mins followed by LPS stimulation for 24 hrs by Griess assay
# Type: functional, cell-based
row,Structure (SMILES),IC50 [µM]
1,COc1cc2c(cc1O)CC1NCCc3cc(OC)c(OC)c-2c31 (configuration not stated),> 10
2,Nc1ncnc2c1ncn2[C@@H]1O[C@H](CO)[C@@H](O)[C@H]1O [ADENOSINE],> 10
3,COc1cc2c(cc1O)CC1c3c(cc(OC)c(O)c3-2)CCN1C (configuration not stated),> 10
4,COc1cc2c(cc1O)CC1NCCc3cc(OC)c(O)c-2c31 (configuration not stated),> 10
5,COc1cc2c3c(c1OC)-c1ccccc1CC3NCC2 (configuration not stated) [NORNUCIFERINE],> 10
6,COc1cc2c(cc1O)CC1c3c(cc(OC)c(OC)c3-2)CCN1C (configuration not stated),> 10
7,COc1c(O)cc2c3c1-c1ccccc1CC3NCC2 (configuration not stated),> 10
8,COc1c(O)cc2c3c1-c1ccccc1CC3N(C)CC2 (configuration not stated),> 10
9,COc1cc(CC2c3cc(O)c(OC)cc3CCN2C)ccc1O (configuration not stated),> 10

# Results, then the compound that gave them:
row,IC50 [µM],Structure (SMILES)
1,> 10,COCc1ccc(C=O)n1CCCC(=O)O
2,> 10,O=C(O)c1c[nH]c2ccccc12
3,> 10,O=c1ccc2ccccc2[nH]1
4,> 10,O=C(NC[C@@H](O[C@@H]1O[C@H](CO)[C@@H](O)[C@H](O)[C@H]1O)c1ccccc1)c1cccc(O)c1
5,> 10,O=C(NC[C@@H](O)c1ccccc1)c1ccc(O)cc1
6,> 10,C[S+]([O-])C[C@H]1O[C@@H](n2cnc3c(N)ncnc32)[C@H](O)[C@@H]1O (some centres not stated)
7,> 10,NC(=O)c1cccnc1 [NIACINAMIDE]
8,> 10,COc1c(O)cc2c3c(cc4ccccc4c13)NC(=O)C2=O [NORARISTOLODIONE]
9,> 10,O[C@]12CO[C@@H](Cc3nccc4c3[nH]c3ccccc34)[C@H]1O2
10,7,C[C@@H]1C[C@H]2[C@@H]3CCC4=CC(=O)C=C[C@]4(C)[C@@]3(F)[C@@H](O)C[C@]2(C)[C@@]1(O)C(=O)CO [DEXAMETHASONE]
11,> 10,O=C(NC[C@@H](O[C@@H]1O[C@H](CO)[C@@H](O)[C@H](O)[C@H]1O)c1ccccc1)c1ccccc1
12,> 10,O=c1ccn([C@@H]2O[C@H](CO)[C@@H](O)[C@H]2O)c(=O)[nH]1 [URIDINE]
13,8.7,OCc1ccc(-c2nccc3c2[nH]c2ccccc23)o1 [PERLOLYRIN]
